From patent US8552037B2, “Tricyclic compound and pharmaceutical use thereof” (Takeda Pharmaceutical Company Limited, priority 2006, dated 2013)

Experiments:
[1] = biological target: human melatonin 1 receptors (human MT1 receptors) (Homo sapiens (Human), UniProt P48039); assay: Melatonin receptor binding assay, 2-[125I] Iodomelatonin, CHO-hMelR7 cell membrane fraction; details: binding inhibition of 2-[125I] Iodomelatonin, CHO-hMelR7 membranes, 25° C., 2.5 hr
Method: (§1) Melatonin Receptor Binding Assay
(1) Preparation of CHO-hMelR7 Cells Expressing Human Melatonin 1 Receptors
(§2) (3) Preparation of Cell Membrane Fraction of CHO Cell (CHO-hMelR7 and CHO-hMT2) Stably Expressing Human MT1 and MT2 Receptors
(§3) CHO-hMelR7 and CHO-hMT2 cells were plated using Cellfactory (Nunc, #170009) under the conditions of 1×10^8 cells/2000 mL/flask. The cells were grown to confluent, and recovered by the following method. As the medium for CHO-hMelR7 and CHO-hMT2, MEM α containing 10% FBS and penicillin/streptomycin was used. […] of geneticin was added to the medium for CHO-hMT2.
(§4) The medium was discarded, cells were washed twice with 200 mL of EDTA/PBS(−), 200 mL of EDTA/PBS(−) was further added, and the cells were stood still at room temperature for 20 min until they were released. […] The mixture was further centrifuged at 1,500 rpm for 10 min at 4° C., and the obtained pellets were suspended in 20 mL of ice-cooled homogenizing buffer [10 mM NaHCO3, 5 mM EDTA, Protease inhibitor Complete (Roche), pH 7.4]. The cell suspension was homogenized 3 times using a polytron homogenizer at 20,000 rpm for 30 sec. The obtained homogenate was centrifuged (2,000 rpm, 10 min, 4° C.) using a low speed cooling centrifuge. The supernatant was recovered in an ultracentrifugation tube and ultracentrifuged (40,000 rpm, 60 min, 4° C.) using an ultracentrifuge (Beckman, L-90K). To the obtained pellets was added a suspending buffer [50 mM Tris-HCl, 1 mM EDTA, Protease inhibitor Complete (Roche), pH 7.4], and the pellets were suspended by pipetting. The protein concentration of this suspension was measured, diluted to 2 mg/mL to give cell membrane fractions of CHO-hMelR7 and CHO-hMT2 cells. […] Protein was quantified using BCA protein assay kit (Pierce) with BSA as the standard.
(§5) (4) Preparation of Membrane Fraction Suspension
(§6) Immediately before use, the membrane fractions of CHO-hMelR7 and CHO-hMT2 cells of the above-mentioned (3) were diluted 20-fold with assay buffer (50 mM Tris-HCl, pH 7.7).
(§7) Iodomelatonin (#NEX236, PerkinElmer) was diluted with the assay buffer to 400 pM for MT1 and 1 nM for MT2.
(§8) Then, a test compound (compound solution diluted with DMSO to 200-fold of the final measurement concentration) was added by 2 μL. 2 μL of DMSO was added to each well of the total binding control section, and 100 μM cold Melatonin solution (Sigma, diluted with DMSO to 100 μM) was added to each well of the nonspecific binding control section by 2 μL. Then, the membrane fraction suspension (100 μL) was added. […] Iodomelatonin solution of the above-mentioned (5) was added to each well mentioned above by 20 μL, and a binding reaction was carried out at 25° C. for 2.5 hr in a micromixer (TAITEC, Bioshaker M.BR-024).
(§9) Using a cell harvester (PerkinElmer), the binding reaction mixture in each well of the 96-well plate was transferred to a treated (immersed in 50 mM Tris, pH 7.7 in advance) filter plate (UniFilter GF/C, PerkinElmer) and filtered. After filtration, the plate was washed 4 times with the assay buffer, and dried in a dryer (42° C.) for 2 hr or more. 25 μL of a liquid scintillator (MicroScint O, PerkinElmer) was added to each well of the filter plate after drying, and the luminescence of scintillator was measured by TopCount (PerkinElmer) for 1 min.
(§10) Specific binding is a value obtained by subtracting nonspecific binding from the total binding. The binding inhibitory activity of the test compound is shown by the ratio of the value obtained by subtracting the measurement value when the test compound was added from the total binding, to the specific binding.

[2] = biological target: human melatonin 2 receptors (human MT2 receptors) (Homo sapiens (Human), UniProt P49286); assay: Melatonin receptor binding assay, 2-[125I] Iodomelatonin, CHO-hMT2 cell membrane fraction; details: binding inhibition of 2-[125I] Iodomelatonin, CHO-hMT2 membranes, 25° C., 2.5 hr
Method: as §1
(2) Preparation of CHO-hMT2 Cells Expressing Human Melatonin 2 Receptors
CHO-K1 cells (ATCC, #CCL-61) were plated at the concentration of 1.5×10^5 cells/cm^2 in a 6 well plate (ASAHI TECHNO GLASS), and cultured under the conditions of 37° C., 5% CO2 for 24 hr.
as §2, §3, §4, §5, §6, §7, §8, §9, §10

Chain of human melatonin 2 receptors (human MT2 receptors) (P49286 whole entry): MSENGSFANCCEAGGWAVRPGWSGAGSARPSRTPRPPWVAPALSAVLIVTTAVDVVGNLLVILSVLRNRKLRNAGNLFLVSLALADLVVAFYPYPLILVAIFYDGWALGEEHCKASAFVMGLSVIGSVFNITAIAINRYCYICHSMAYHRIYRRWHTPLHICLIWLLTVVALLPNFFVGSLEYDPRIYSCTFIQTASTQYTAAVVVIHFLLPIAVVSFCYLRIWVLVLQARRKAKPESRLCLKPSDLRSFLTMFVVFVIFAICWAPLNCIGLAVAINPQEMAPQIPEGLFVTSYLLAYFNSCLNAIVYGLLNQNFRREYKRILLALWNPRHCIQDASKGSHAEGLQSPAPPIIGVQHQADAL
Chain of human melatonin 1 receptors (human MT1 receptors) (P48039 whole entry): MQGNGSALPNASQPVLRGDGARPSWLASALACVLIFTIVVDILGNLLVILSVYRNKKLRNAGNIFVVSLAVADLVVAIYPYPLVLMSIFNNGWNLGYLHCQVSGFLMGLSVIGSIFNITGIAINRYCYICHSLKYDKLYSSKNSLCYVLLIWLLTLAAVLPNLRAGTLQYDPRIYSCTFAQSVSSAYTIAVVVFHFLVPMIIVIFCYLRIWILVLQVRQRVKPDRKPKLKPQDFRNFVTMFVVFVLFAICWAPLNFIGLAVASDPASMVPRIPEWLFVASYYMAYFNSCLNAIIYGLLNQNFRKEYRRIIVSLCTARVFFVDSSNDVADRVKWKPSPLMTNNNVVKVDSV

| melting point [°C] | IC50 [1] [pM] | IC50 [2] [pM] | SMILES |
| --- | --- | --- | --- |
| 132 to 134 | – | – | CC(=O)NCCC1CCc2ccc3nc(CO)oc3c21 (stereo not drawn) [Example 23, N-{2-[2-(Hydroxymethyl)-7,8-dihydro-6H-indeno[5,4-d][1,3]oxazol-8-yl]ethyl}acetamide] |
| 114 to 116 | – | – | CC(=O)NCCC1CCc2ccc3nc(C(F)(F)F)oc3c21 (stereo not drawn) [Example 25, N-{2-[2-(Trifluoromethyl)-7,8-dihydro-6H-indeno[5,4-d][1,3]oxazol-8-yl]ethyl}acetamide] |
| 111 to 112 | – | – | CC(=O)CCc1nc2ccc3c(c2o1)C(CCNC(C)=O)CC3 (stereo not drawn) [Example 28, N-{2-[2-(3-Oxobutyl)-7,8-dihydro-6H-indeno[5,4-d][1,3]oxazol-8-yl]ethyl}acetamide] |
| 92 to 95 | 660 | 750 | CC(=O)NCCC1CCc2ccc3nc(C4CC4)oc3c21 (stereo not drawn) [Example 29, N-[2-(2-Cyclopropyl-7,8-dihydro-6H-indeno[5,4-d][1,3]oxazol-8-yl)ethyl]acetamide] |
| 124 to 126 | – | – | CC(=O)NCCC1CCc2ccc3nc(-c4ccccc4)oc3c21 (stereo not drawn) [Example 30, N-[2-(2-Phenyl-7,8-dihydro-6H-indeno[5,4-d][1,3]oxazol-8-yl)ethyl]acetamide] |
| 85 to 87 | – | – | CC(=O)NCCC1CCc2ccc3nc(CCc4ccccc4)oc3c21 (stereo not drawn) [Example 32, N-{2-[2-(2-Phenylethyl)-7,8-dihydro-6H-indeno[5,4-d][1,3]oxazol-8-yl]ethyl}acetamide] |
| 95 to 97 | – | – | CC(=O)NCCC1CCc2ccc3nc(CCCc4ccccc4)oc3c21 (stereo not drawn) [Example 33, N-{2-[2-(3-Phenylpropyl)-7,8-dihydro-6H-indeno[5,4-d][1,3]oxazol-8-yl]ethyl}acetamide] |
| 115 to 117 | – | – | CSc1nc2ccc3c(c2o1)C(CCNC(C)=O)CC3 (stereo not drawn) [Example 39, N-{2-[2-(Methylthio)-7,8-dihydro-6H-indeno[5,4-d][1,3]oxazol-8-yl]ethyl}acetamide] |
| 134 to 137 | 250 | 770 | Cc1nc2ccc3c(c2o1)C(CCNC(=O)C1CC1)CC3 (stereo not drawn) [Example 43, N-[2-(2-Methyl-7,8-dihydro-6H-indeno[5,4-d][1,3]oxazol-8-yl)ethyl]cyclopropanecarboxamide] |
| 73 to 76 | – | – | Cc1nc2ccc3c(c2o1)C(CCNC(=O)c1ccccc1)CC3 (stereo not drawn) [Example 44, N-[2-(2-Methyl-7,8-dihydro-6H-indeno[5,4-d][1,3]oxazol-8-yl)ethyl]benzamide] |
| 136 to 138 | – | – | CCNC(=O)NCCC1CCc2ccc3nc(C)oc3c21 (stereo not drawn) [Example 46, 1-Ethyl-3-[2-(2-methyl-7,8-dihydro-6H-indeno[5,4-d][1,3]oxazol-8-yl)ethyl]urea] |
| 135 to 138 | – | – | CC(=O)NCCC1=C(C(C)C)Cc2ccc3nc(C)oc3c21 [Example 49, N-[2-(7-Isopropyl-2-methyl-6H-indeno[5,4-d][1,3]oxazol-8-yl)ethyl]acetamide] |

The remaining lines, values behind:

| SMILES | melting point [°C] | IC50 [1] [pM] | IC50 [2] [pM] |
| --- | --- | --- | --- |
| CCC(=O)NCC=C1CCc2ccc3ncoc3c21 [Example 2, N-[2-(6,7-Dihydro-8H-indeno[5,4-d][1,3]oxazol-8-ylidene)ethyl]propionamide] | 148 to 150 | – | – |
| CC(=O)NCC=C1CCc2ccc3nc(C)oc3c21 [Example 3, N-[2-(2-Methyl-6,7-dihydro-8H-indeno[5,4-d][1,3]oxazol-8-ylidene)ethyl]acetamide] | 188 to 190 | 330 | 370 |
| CC(=O)NCCC1=CCc2ccc3nc(C)oc3c21 [Example 4, N-[2-(2-Methyl-6H-indeno[5,4-d][1,3]oxazol-8-yl)ethyl]acetamide] | 154 to 156 | 68 | 240 |
| CCC(=O)NCC=C1CCc2ccc3nc(C)oc3c21 [Example 5, N-[2-(2-Methyl-6,7-dihydro-8H-indeno[5,4-d][1,3]oxazol-8-ylidene)ethyl]propionamide] | 214 to 216 | 250 | 220 |
| CC(=O)NCC=C1CCc2ccc3nc(CCCCc4ccccc4)oc3c21 [Example 6, N-{2-[2-(4-Phenylbutyl)-6,7-dihydro-8H-indeno[5,4-d][1,3]oxazol-8-ylidene]ethyl}acetamide] | 113 to 115 | 79 | 430 |
| CCC(=O)NCC=C1CCc2ccc3nc(CCCCc4ccccc4)oc3c21 [Example 7, N-{2-[2-(4-Phenylbutyl)-6,7-dihydro-8H-indeno[5,4-d][1,3]oxazol-8-ylidene]ethyl}propionamide] | 111 to 113 | – | – |
| CC(=O)NCC=C1CCc2ccc3nc(C)sc3c21 [Example 8, N-[2-(2-Methyl-6,7-dihydro-8H-indeno[5,4-d][1,3]thiazol-8-ylidene)ethyl]acetamide] | 184 to 186 | 190 | 220 |
| CC(=O)NCCC1CCc2ccc3ncoc3c21 (stereo not drawn) [Example 9, N-[2-(7,8-Dihydro-6H-indeno[5,4-d][1,3]oxazol-8-yl)ethyl]acetamide] | – | 880 | 310 |
| CCC(=O)NCCC1CCc2ccc3ncoc3c21 (stereo not drawn) [Example 10, N-[2-(7,8-Dihydro-6H-indeno[5,4-d][1,3]oxazol-8-yl)ethyl]propionamide] | 89 to 90 | – | – |
| CC(=O)NCCC1CCc2ccc3nc(C)oc3c21 (stereo not drawn) [Example 11, N-[2-(2-Methyl-7,8-dihydro-6H-indeno[5,4-d][1,3]oxazol-8-yl)ethyl]acetamide] | – | 150 | 310 |
| CC(=O)NCC[C@H]1CCc2ccc3nc(C)oc3c21 [Example 13, (R)-N-[2-(2-Methyl-7,8-dihydro-6H-indeno[5,4-d][1,3]oxazol-8-yl)ethyl]acetamide] | – | 15000 | 9600 |
| CCC(=O)NCCC1CCc2ccc3nc(C)oc3c21 (stereo not drawn) [Example 14, N-[2-(2-Methyl-7,8-dihydro-6H-indeno[5,4-d][1,3]oxazol-8-yl)ethyl]propionamide] | – | 130 | 280 |
| CCC(=O)NCC[C@H]1CCc2ccc3nc(C)oc3c21 [Example 16, (R)-N-[2-(2-Methyl-7,8-dihydro-6H-indeno[5,4-d][1,3]oxazol-8-yl)ethyl]propionamide] | – | 11000 | 6200 |
| CC(=O)NCCC1CCc2ccc3nc(CCCCc4ccccc4)oc3c21 (stereo not drawn) [Example 17, N-{2-[2-(4-Phenylbutyl)-7,8-dihydro-6H-indeno[5,4-d][1,3]oxazol-8-yl]ethyl}acetamide] | – | 22 | 91 |
| CC(=O)NCC[C@H]1CCc2ccc3nc(C)sc3c21 [Example 21, (R)-N-[2-(2-Methyl-7,8-dihydro-6H-indeno[5,4-d][1,3]thiazol-8-yl)ethyl]acetamide] | – | 19000 | 8500 |
| CCc1nc2ccc3c(c2o1)C(CCNC(C)=O)CC3 (stereo not drawn) [Example 22, N-[2-(2-Ethyl-7,8-dihydro-6H-indeno[5,4-d][1,3]oxazol-8-yl)ethyl]acetamide] | 76 to 78 | 360 | 410 |
